{"source": "PubChem BioAssay AID1549", "about": "(Sanford-Burnham Center for Chemical Genomics, 2009)", "target": "Influenza A virus M2 proton channel (A/TW/4845/1999 H1N1)", "experiment": "M2 proton channel binding, NMR based, influenza A virus H1N1 strain (AID 1549)", "conditions": "NMR binding screen, M2 protein", "note": "Activity calls are given as the source filed them. How the calls were made is not given here.", "data": [{"molecule": "CSc1n[nH]c(NCc2cccs2)n1", "values": [{"measurement": "Kd", "result": "> 4 mM (inactive)"}]}, {"molecule": "C[C@@H]1CC[C@@]2(OC1)OC1CC3C4CC=C5C[C@@H](O)CC[C@]5(C)C4CC[C@]3(C)C1[C@@H]2C", "note": "(stereo not given in full)", "values": [{"measurement": "Kd", "result": "> 4 mM (inactive)"}]}, {"molecule": "Cc1oc(S(=O)(=O)N2CCCCC2)cc1C(=O)O", "values": [{"measurement": "Kd", "result": "> 4 mM (inactive)"}]}, {"molecule": "Cc1cc(C)nc(/N=C(/N)N2CCOCC2)n1", "values": [{"measurement": "Kd", "result": "> 4 mM (inactive)"}]}, {"molecule": "Nc1ncnc2c1ncn2CCOc1ccccc1", "values": [{"measurement": "Kd", "result": "> 4 mM (inactive)"}]}, {"molecule": "CC1(C)C(=O)C=C[C@@]2(C)C1CC(=O)[C@]1(C)C2CC[C@@]2(C)[C@H](c3ccoc3)OC(=O)[C@H]3O[C@]321", "note": "(stereo not given in full)", "values": [{"measurement": "Kd", "result": "> 4 mM (inactive)"}]}, {"molecule": "CC(=O)Nc1cccc(N2C(=O)CCC2=O)c1", "values": [{"measurement": "Kd", "result": "> 4 mM (inactive)"}]}, {"molecule": "CN1C(=O)/C(=C\\c2ccc[nH]2)SC1=S", "values": [{"measurement": "Kd", "result": "> 4 mM (inactive)"}]}, {"molecule": "OC1CCC(C(F)(F)F)CC1", "note": "(stereo not given)", "values": [{"measurement": "Kd", "result": "> 4 mM (inactive)"}]}, {"molecule": "O=C(O)C1CSC(c2ccccc2)N1", "note": "(stereo not given)", "values": [{"measurement": "Kd", "result": "> 4 mM (inactive)"}]}, {"molecule": "NC1=NC(=O)/C(=C\\c2cccc(C(=O)O)c2)S1", "values": [{"measurement": "Kd", "result": "> 4 mM (inactive)"}]}, {"molecule": "CNC(=O)CC1Sc2ccccc2NC1=O", "note": "(stereo not given)", "values": [{"measurement": "Kd", "result": "> 4 mM (inactive)"}]}, {"molecule": "O=C(O)CC1C(=O)NCCN1Cc1cccs1", "note": "(stereo not given)", "values": [{"measurement": "Kd", "result": "> 4 mM (inactive)"}]}, {"molecule": "Nc1cccc(NC(=O)c2cccs2)c1", "values": [{"measurement": "Kd", "result": "> 4 mM (inactive)"}]}, {"molecule": "COCc1cc(C)nc2sc(C(=O)OC)c(N)c12", "values": [{"measurement": "Kd", "result": "> 4 mM (inactive)"}]}, {"molecule": "Cc1cc(-c2ccc(Cl)cc2)n2nc(N)nc2n1", "values": [{"measurement": "Kd", "result": "> 4 mM (inactive)"}]}, {"molecule": "O=C(O)c1cccc(CSc2ncccn2)c1", "values": [{"measurement": "Kd", "result": "> 4 mM (inactive)"}]}, {"molecule": "Cc1cc(C)nc(/N=C(/N)Nc2cccc(F)c2)n1", "values": [{"measurement": "Kd", "result": "> 4 mM (inactive)"}]}, {"molecule": "O=C(NN1C(=O)CSC1=S)c1ccccc1", "values": [{"measurement": "Kd", "result": "> 4 mM (inactive)"}]}, {"molecule": "CC(=O)CC(=O)N1C(O)CC[N+]1(C)C", "note": "(stereo not given)", "values": [{"measurement": "Kd", "result": "> 4 mM (inactive)"}]}, {"molecule": "CC(C)=CCCC1(C)C=Cc2c(O)c3c(c(CC=C(C)C)c2O1)OC12C(=CC4CC1C(C)(C)OC2(C/C=C(/C)C(=O)O)C4O)C3=O", "note": "(stereo not given)", "values": [{"measurement": "Kd", "result": "> 4 mM (inactive)"}]}, {"molecule": "NC(=O)CCn1cnc2ccccc21", "values": [{"measurement": "Kd", "result": "> 4 mM (inactive)"}]}, {"molecule": "Clc1ncnc2[nH]ncc12", "values": [{"measurement": "Kd", "result": "> 4 mM (inactive)"}]}, {"molecule": "C/C(=C\\CO)CC[C@H](C)CCC[C@H](C)CCCC(C)C", "values": [{"measurement": "Kd", "result": "> 4 mM (inactive)"}]}, {"molecule": "O=c1[nH]c(O)c(C=NC2CC2)c(=O)[nH]1", "values": [{"measurement": "Kd", "result": "> 4 mM (inactive)"}]}, {"molecule": "Cc1cc(C)c2nncn2n1", "values": [{"measurement": "Kd", "result": "> 4 mM (inactive)"}]}, {"molecule": "NCC(O)c1ccc(O)cc1", "note": "(stereo not given)", "values": [{"measurement": "Kd", "result": "> 4 mM (inactive)"}]}, {"molecule": "COc1ccccc1NC(N)=S", "values": [{"measurement": "Kd", "result": "> 4 mM (inactive)"}]}, {"molecule": "Cc1nc(-c2ccc(CO)s2)cs1", "values": [{"measurement": "Kd", "result": "> 4 mM (inactive)"}]}, {"molecule": "CCN1CCN(CCCNc2ncnc3nc[nH]c23)CC1", "values": [{"measurement": "Kd", "result": "> 4 mM (inactive)"}]}, {"molecule": "O=C1NC(=S)N/C1=C\\c1ccccc1F", "values": [{"measurement": "Kd", "result": "> 4 mM (inactive)"}]}, {"molecule": "OCc1ccc2c(c1)CCO2", "values": [{"measurement": "Kd", "result": "> 4 mM (inactive)"}]}, {"molecule": "CNC(=O)Cn1c(=O)n(C)c2ccccc21", "values": [{"measurement": "Kd", "result": "> 4 mM (inactive)"}]}, {"molecule": "O=C(O)CCCCCCCCCCCCC1C=CCC1", "note": "(stereo not given)", "values": [{"measurement": "Kd", "result": "> 4 mM (inactive)"}]}, {"molecule": "Nc1ccc2sccc2c1", "values": [{"measurement": "Kd", "result": "> 4 mM (inactive)"}]}, {"molecule": "NC(=O)Cn1cnc2ccccc21", "values": [{"measurement": "Kd", "result": "> 4 mM (inactive)"}]}, {"molecule": "CC1=CC2C(C(C)C)CCC(C)(O)C2CC1", "note": "(stereo not given)", "values": [{"measurement": "Kd", "result": "> 4 mM (inactive)"}]}, {"molecule": "CC(=O)c1cccc(N=C2NC(=O)CS2)c1", "values": [{"measurement": "Kd", "result": "> 4 mM (inactive)"}]}, {"molecule": "Cc1nc2ccccc2c(=O)n1NC(=O)C1CCCCC1", "values": [{"measurement": "Kd", "result": "> 4 mM (inactive)"}]}, {"molecule": "O=C(Nc1ccncc1)Nc1ccc(F)cc1F", "values": [{"measurement": "Kd", "result": "> 4 mM (inactive)"}]}, {"molecule": "Nc1nc(CSc2ncn(-c3ccccc3)n2)cs1", "values": [{"measurement": "Kd", "result": "> 4 mM (inactive)"}]}, {"molecule": "CCOC(=O)c1cnc2sccn2c1=O", "values": [{"measurement": "Kd", "result": "> 4 mM (inactive)"}]}, {"molecule": "CC(C)NC(=O)c1cc(=O)n(C)c(=O)n1C", "values": [{"measurement": "Kd", "result": "> 4 mM (inactive)"}]}, {"molecule": "OCc1ccc2nsnc2c1", "values": [{"measurement": "Kd", "result": "> 4 mM (inactive)"}]}, {"molecule": "Cc1cc(C)n(CCCC(=O)O)n1", "values": [{"measurement": "Kd", "result": "> 4 mM (inactive)"}]}]}
